Biological target: T1, γ-secretase, Aβ(1-42) production, SH-SY5Y neuroblastoma cells overexpressing SPA4CT (Homo sapiens, UniProt P49768)
T1 construct: Human SH-SY5Y neuroblastoma cells overexpressing the direct γ-secretase substrate SPA4CT; endogenous in cells; host or cells: human SH-SY5Y neuroblastoma cells stably overexpressing the substrate SPA4CT, induced with sodium butyrate
Assay: Cell-Based γ-Secretase Assay, Aβ(42) detection
Conditions: overnight incubation, read-out: IC50 values for Aβ(1-42) inhibition
Procedure: Cell-Based γ-Secretase Assay
Human SH-SY5Y neuroblastoma cells overexpressing the direct γ-secretase substrate SPA4CT were induced with sodium butyrate (10 mM) for 4 hours prior to plating. Cells were plated at 35,000 cells/well/100 μl in 96-well plates in phenol red-free MEM/10% FBS, 50 mM HEPES, 1% Glutamine and incubated for 2 hrs at 37° C., 5% CO2.
Compounds for testing were diluted into Me2SO to give a ten point dose-response curve. Typically 10 μl of these diluted compounds in Me2SO were further diluted into 182 μl dilution buffer (phenol red-free MEM/10% FBS, 50 mM HEPES, 1% Glutamine) and 10 μl of each dilution was added to the cells in 96-well plates (yielding a final Me2SO concentration of 0.5%). Appropriate vehicle and inhibitor controls were used to determine the window of the assay.
After incubation overnight at 37° C., 5% CO2, 25 μl and 50 μl media were transferred into a standard Meso avidin-coated 96-well plate for detection of Aβ(40) and Aβ(42) peptides, respectively. 25 μl Meso Assay buffer (PBS, 2% BSA, 0.2% Tween-20) was added to the Aβ(40) wells followed by the addition of 25 μl of the respective antibody premixes to the wells:
Aβ(42) premix: 1 μg/ml ruthenylated G2-11 antibody, 4 μg/ml biotinylated 4G8 antibody diluted in Origen buffer
(Biotinylated 4G8 antibody supplied by Signet Pathology Ltd; G2-10 and G2-11 antibodies supplied by Chemicon)
After overnight incubation of the assay plates on a shaker at 4° C., the Meso Scale Sector 6000 Imager was calibrated according to the manufacturer's instructions. After washing the plates 3 times with 150 μl of PBS per well, 150 μl Meso Scale Discovery read buffer was added to each well and the plates were read on the Sector 6000 Imager according to the manufacturer's instructions.
LD50 and IC50 values for inhibition of Aβ(40) and Aβ(42) were calculated by nonlinear regression fit analysis using the appropriate software (eg. Excel fit). The total signal and the background were defined by the corresponding Me2SO and inhibitor controls.

Structure (SMILES) | IC50
CCOc1cc(C)c(Nc2nc(N3CCC(n4ccnn4)CC3)ncc2Cl)cc1C(C)C [Example 19, 5-chloro-N-(4-ethoxy-5-isopropyl-2-methylphenyl)-2-[4-(1H-1,2,3-triazol-1-yl)piperidin-1-yl]pyrimidin-4-amine] | 1.5 to 3 µM
Cc1ccc(C(C)(C)C)cc1Nc1ccnc(N2CCC(n3ccnn3)CC2)n1 [Example 15, N-(5-tert-butyl-2-methylphenyl)-2-[4-(1H-1,2,3-triazol-1-yl)piperidin-1-yl]pyrimidin-4-amine] | 0.5 to 1.5 µM
Cc1ccc(C(C)(C)C)cc1Nc1nc(N2CCC(n3ccnn3)CC2)ncc1F [Example 1, N-(5-tert-butyl-2-methylphenyl)-5-fluoro-2-[4-(1H-1,2,3-triazol-1-yl)piperidin-1-yl]pyrimidin-4-amine] | 3 to 6 µM
CCN(CC)c1ccc(Nc2ccnc(N3CCC4(CCCN4)CC3)n2)c(C)c1 [Example 4, N1-[2-(1,8-diazaspiro[4.5]dec-8-yl)pyrimidin-4-yl]-N4,N4-diethyl-2-methylbenzene-1,4-diamine] | 3 to 6 µM
CCOc1cc(C)c(Nc2ccnc(N3CCC(n4ccnn4)CC3)n2)cc1C(C)C [Example 10, N-(4-ethoxy-5-isopropyl-2-methylphenyl)-2-[4-(1H-1,2,3-triazol-1-yl)piperidin-1-yl]pyrimidin-4-amine] | 0.5 to 1.5 µM
Cc1ccc(C(C)(C)C)cc1Nc1cc(S(C)(=O)=O)nc(N2CCC(n3ccnc3)CC2)n1 [Example 18, N-(5-tert-butyl-2-methylphenyl)-2-[4-(1H-imidazol-1-yl)piperidin-1-yl]-6-(methylsulfonyl)pyrimidin-4-amine] | 3 to 6 µM
CCOc1cc(C)c(Nc2nc(N3CCC(n4ccnn4)CC3)ncc2F)cc1C(C)C [Example 21, N-(4-ethoxy-5-isopropyl-2-methylphenyl)-5-fluoro-2-[4-(1H-1,2,3-triazol-1-yl)piperidin-1-yl]pyrimidin-4-amine] | 0.5 to 1.5 µM
CCOc1cc(C)c(Nc2cc(C(=O)OC)nc(N3CCC(n4ccnc4)CC3)n2)cc1C(C)C [Example 24] | < 0.5 µM
CCOc1cc(C)c(Nc2nc(N3CCC(n4ccnc4)CC3)ncc2F)cc1C(C)C [Example 22, N-(4-ethoxy-5-isopropyl-2-methylphenyl)-5-fluoro-2-[4-(1H-imidazol-1-yl)piperidin-1-yl]pyrimidin-4-amine] | 0.5 to 1.5 µM
Cc1ccc(C(C)(C)C)cc1Nc1nc(N2CCC(n3ccnc3)CC2)ncc1F [Example 17, N-(5-tert-butyl-2-methylphenyl)-5-fluoro-2-[4-(1H-imidazol-1-yl)piperidin-1-yl]pyrimidin-4-amine] | 3 to 6 µM
CCOc1cc(C)c(Nc2ccnc(N3CCC(n4ccnc4)CC3)n2)cc1C(C)C [Example 11, N-(4-ethoxy-5-isopropyl-2-methylphenyl)-2-[4-(1H-1,2,3-imidazol-1-yl)piperidin-1-yl]pyrimidin-4-amine] | < 0.5 µM
CCOc1cc(C)c(Nc2nc(N3CCC(n4ccnc4)CC3)ncc2Cl)cc1C(C)C [Example 20, 5-chloro-N-(4-ethoxy-5-isopropyl-2-methylphenyl)-2-[4-(1H-imidazol-1-yl)piperidin-1-yl]pyrimidin-4-amine] | 1.5 to 3 µM
Cc1ccc(C(C)C)cc1Nc1ccnc(N2CCC(n3ccnn3)CC2)n1 [Example 12, N-(5-isopropyl-2-methylphenyl)-2-[4-(1H-1,2,3-triazol-1-yl)piperidin-1-yl]pyrimidin-4-amine] | 3 to 6 µM
CCN(CC)c1ccc(Nc2ccnc(N3CCC(n4ccnn4)CC3)n2)c(C)c1 [Example 8, N4,N4-diethyl-2-methyl-N1-{2-[4-(1H-1,2,3-triazol-1-yl)piperidin-1-yl]pyrimidin-4-yl}benzene-1,4-diamine] | 3 to 6 µM
Cc1ccc(C(C)(C)C)cc1Nc1ccnc(N2CCC(n3ccnc3)CC2)n1 [Example 16, N-(5-tert-butyl-2-methylphenyl)-2-[4-(1H-imidazol-1-yl)piperidin-1-yl]pyrimidin-4-amine] | 0.5 to 1.5 µM
CCOc1cc(C)c(Nc2nc(N3CCC(n4cc(C)nn4)CC3)ncc2Cl)cc1C(C)C [Example 23, 5-chloro-N-(4-ethoxy-5-isopropyl-2-methylphenyl)-2-[4-(4-methyl-1H-1,2,3-triazol-1-yl)piperidin-1-yl]pyrimidin-4-amine] | 1.5 to 3 µM
CCN(CC)c1ccc(Nc2ccnc(N3CCC(n4ccnc4)CC3)n2)c(C)c1 [Example 7, N4,N4-diethyl-N1-{2-[4-(1H-imidazol-1-yl)piperidin-1-yl]pyrimidin-4-yl}-2-methylbenzene-1,4-diamine] | 3 to 6 µM
CCOc1cc(C)c(Nc2cc(CO)nc(N3CCC(n4ccnc4)CC3)n2)cc1C(C)C [Example 25, {6-[(4-ethoxy-5-isopropyl-2-methylphenyl)amino]-2-[4-(1H-imidazol-1-yl)piperidin-1-yl]pyrimidin-4-yl}methanol] | < 0.5 µM
CCN(CC)c1ccc(Nc2ccnc(N3CCC(c4nnc(-c5ccccc5)o4)CC3)n2)c(C)c1 [Example 14, N4,N4-diethyl-2-methyl-N1-{2-[4-(5-phenyl-1,3,4-oxadiazol-2-yl)piperidin-1-yl]pyrimidin-4-yl}benzene-1,4-diamine] | 1.5 to 3 µM

Source: patent US8252803B2 (Merck Sharp & Dohme Corp., priority 2007, dated 2012)
